Assays:
[1] = tested on: myelin genes Mbp, Mog and Plp and transcription elements Sp1, Sox10 and Purα in OPCs; assay: qPCR analysis of myelin gene expression in OPCs treated with AA; type: cell-based, rat; details: AA 2.5 μM, 3 hours
Description: Mbp=myelin basic protein, Plp=proteolipoprotein, Mog=myelin oligodendrocyte glycoprotein.
The effect of AA on the expression of myelin genes, MBP, and IL-33 was examined. […] Natarajan et al., PLOS One, 11(3):e0152163 (2016); Sriram et al., Neurology, Abstract presented at the American Academy of Neurology, 2016 (2016). The studies were done in OPCs obtained from rat pups. OPCs were treated with AA (2.5 μM) for 3 hours and message levels were quantified using qPCR analysis. OPCs treated with AA induced the major myelin genes Mbp, Mog and Plp.

[2] = tested on: cuprizone induced demyelination; assay: Cuprizone induced model of demyelination, myelin staining of corpus callosum; type: in vivo, mice
Description: Mice were administered cuprizone for nine weeks, and starting at week 7, mice were treated with 12.5 mg/kg AA daily for three additional weeks. Mice were sacrificed at the end of week 9. […] The data are expressed as the mean pixel intensity of LFB staining normalized to controls measured at two non-overlapping regions of the corpus callosum.
FIG. 11 provides images showing the staining of myelin using LFB stain (top panel) and immunostaining with anti MBP antibodies (bottom panel) in coronal sections of the brain in a 9-week study of naïve (left), cuprizone treated (middle), and cuprizone+AA treated (12.5 mg/kg/day) mice where the cuprizone+AA treated mice were treated with AA in weeks 7-9 of the study. The Y axis represents the mean pixel intensity of staining normalized to controls for LFB and immunostaining for MBP.
The cuprizone induced model of demyelination is a model for toxic demyelination. Torkildsen et al., Acta Neurol Scand Suppl. 188:72-6 (2008); Bai et al., Exp Neurol, 283(Pt A): 330-40 (2016). Cuprizone induces extensive demyelination in large white matter tracts of the CNS. Because the corpus callosum is the largest white matter tract in the brain, it is often used to study demyelination/remyelination in the cuprizone model. In the cuprizone model, animals are fed with cuprizone that causes cell death of oligodendrocytes. […] Deshmukh et al., Nature, 502(7471):327-32 (2014); Magalon et al., Ann Neurol, 71(2):213-26 (2012). Since the model is non-immune mediated, neuro-reparative therapies which promote remyelination can be tested without the interference of markers of inflammation. Lassmann and Bradl, Acta Neuropathol, 133(2):223-44 (2017).
The efficacy of any potential drug is only apparent for a short period of time after cuprizone withdrawal and before the natural process of remyelination catches up. Following cuprizone withdrawal, there is complete remyelination after 6 weeks. Thus, a study was conducted where mice were administered cuprizone in their chow for nine weeks and either AA or a vehicle were administered with the cuprizone starting at 7 weeks. Previous studies have shown that chow mixed with 0.2% cuprizone causes wide spread demyelination and demyelination is seen in the corpus callosum after 6 to 8 weeks on cuprizone. At the beginning of week 7, mice received 12.5 mg/kg of AA dissolved in DMSO sc daily for an additional three weeks. Control mice received an equal volume of DMSO (vehicle). Equal numbers of mice (5/group) were sacrificed and the amount of myelin was determined by staining with luxol fast blue (“LFB”) (chemical stain for myelin) or by staining with anti MBP antibodies at the end of weeks 7, 8 and 9. […]

## CCCCCCCCCCCCCCCc1cccc(O)c1C(=O)O [AA, anacardic acid]
[1]
  expression of major myelin genes Mbp, Mog and Plp (message levels, qPCR): induced
  expression of transcription elements Sp1, Sox10 and Purα that bind the Mbp promoter (qPCR): upregulation
[2]; AA 12.5 mg/kg/day
  number of oligodendrocytes vs vehicle treated mice: no difference
[2]; end of week 9, three weeks of AA 12.5 mg/kg sc daily, P<0.02
  increase in LFB staining of corpus callosum vs control mice: 10%
[2]; end of weeks 7 and 8, one or two weeks of AA 12.5 mg/kg sc daily
  expression of myelin vs control mice: no differences
[2]; week 9, AA 12.5 mg/kg/day weeks 7-9, P=0.02
  increase in MBP staining (anti MBP antibodies) vs control mice: 17%
